Literature values in patent US20040171664A1, “Compositions of cyclooxygenase-2 selective inhibitors and selective serotonin reuptake inhibitors for the treatment or prevention of a vaso-occlusive event” (Pharmacia Corporation, priority 2002, published 2004).

Tests used:
[1] = test system: coronary intimal proliferation; conditions: oral administration, swine model of restenosis
[2] = test system: vascular smooth muscle cells; conditions: in vitro
[3] = both depressed and nondepressed patients
[4] = single dose intravenous pretreatment before coronary stenting
[5] = test system: platelet activation; conditions: Pollock et al. 2000
[6] = test system: restenosis; conditions: orally administered, stent implanted pig arteries

Structure (SMILES): CN(C)CCCO[C@@H]1[C@H]2OC(C)(C)O[C@H]2O[C@@H]1[C@H](O)CO.Cl [aniprilose hydrochloride]
- coronary intimal proliferation [1]: did not prevent

Structure (SMILES): COc1cc(/C=C/C(=O)CC(=O)/C=C/c2ccc(O)c(OC)c2)ccc1O [curcumin]
- proliferation of vascular smooth muscle cells [2]: reduced

Structure (SMILES): CNCCC(Oc1ccc(C(F)(F)F)cc1)c1ccccc1 (stereo not shown) [fluoxetine]
- survival of stroke patients [3]: increased the survival

Structure (SMILES): C[C@H]1C[C@@H]2[C@H]([C@@H](O)C[C@@]3(C)[C@H]2CC[C@]3(O)C(=O)CO)[C@@]2(C)C=CC(=O)C=C12 [methylpridnisolone]
- change in minimal lumen diameter at 6 months [4]: no effect

Structure (SMILES): CNCCC=C1c2ccccc2CCc2ccccc21 [nortriptyline]
- survival of stroke patients [3]: increased the survival

Structure (SMILES): CN[C@H]1CC[C@@H](c2ccc(Cl)c(Cl)c2)c2ccccc21 [sertraline]
- preventing platelet activation [5]: particularly effective

Structure (SMILES): COc1ccc(C=CC(=O)Nc2ccccc2C(=O)O)cc1OC [tranilast, N-(3,4-dimethoxycinnamoyl) anthranilic acid]
- rate of restenosis [6]: lower rate
